In patent US20210046063A1 (University of Kentucky Research Foundation, priority 2019, published 2021):
Entries after “also recorded” stand apart in the source; their conditions may differ.

Tests used:
Par-4 = settings: cancer patients, Phase 1 clinical trials; cited from earlier work
[1] = test system: GRP78 on lung cancer cell surface; assay: Analysis for GRP78 at the cell surface of lung cancer cells; format: cell-based; settings: CZT (1 μM), 24 h, FIG. 1B
From the text: Analysis for GRP78 at the cell surface. Mean+SD shown. *P<0.01 by Anova or Student's t test. P>0.05 by Anova.
A lack of cell surface […] expression may prevent secreted Par-4 from inducing apoptosis in cancer cells.

LLC1 cells = assay: LLC1-derived lung tumor nodules in mice; format: in vivo; settings: FIG. 2
Description: Mice were injected i.v. with LLC1 cells, and 24 h later injected i.p. with CQ (25 mg/kg body weight), CZT (10 mg/kg body weight), CQ+CZT (25 and 10 mg/kg, resp.) or vehicle once every day for 5 consecutive days. After 28 days, the lungs were scored for tumor nodules. *P<0.01 by Anova test.

Par-4 secretion = settings: cited from earlier work
[2] = test system: lung cancer cell lines (A549/EML4-ALK, A549, A549TR, H1299, KP-7B); assay: Apoptosis of lung cancer cells (ICC for active caspase-3, scored by confocal microscopy); format: cell-based; settings: 24 h
Description: Lung cancer cells treated with vehicle, CQ (100 nM), CZT (25 μM), and a combination of CZT (1 μM) and CQ (25 nM) for 24 h.

Molecule: CCN(CCO)CCCC(C)Nc1ccnc2cc(Cl)ccc12 (stereo not drawn) [HCQ, hydroxychloroquine]
- Par-4 levels in plasma (Par-4): elevated Par-4 levels in the plasma
- apoptosis in patients' tumors (Par-4): induced apoptosis in their tumors

Molecule: C[C@@H](Oc1cc(-c2cnn(C3CCNCC3)c2)cnc1N)c1c(Cl)ccc(F)c1Cl [CZT, Crizotinib]
- GRP78 expression at the cell surface [1]: upregulates GRP78 expression on the surface of lung cancer cells; also recorded: elevation of Par-4 receptor GRP78 on lung tumor cell surface
- inhibition of lung tumor growth (lung tumor nodules) (LLC1 cells; LLC1 cells i.v., i.p. CQ 25 mg/kg, CZT 10 mg/kg, once daily for 5 days, lungs scored after 28 days): significant inhibition of lung tumor growth; also recorded: showed an effect

Molecule: CCN(CC)CCCC(C)Nc1ccnc2cc(Cl)ccc12 (stereo not drawn) [CQ, Chloroquine]
- Par-4 secretion from lung cancer cells (Par-4 secretion; lung cancer cells): did not show secretion of Par-4
- Par-4 secretion from normal cells (Par-4 secretion; normal cells, cell culture and mice): increased Par-4 secretion from normal cells
- apoptosis, CQ in conjunction with CZT added directly to cancer cells ([2]; combination of CZT (1 μM) and CQ (25 nM), P>0.05, FIG. 1C): did not induce apoptosis
- inhibition of lung tumor nodules by CQ in the presence of CZT, relative to CZT or CQ administered separately (LLC1 cells; LLC1-derived nodules in mice, CQ 25 mg/kg + CZT 10 mg/kg i.p.): significantly greater inhibition

B1: recombinant Par-4: recombinant tumor suppressor Prostate Apoptosis Response-4 protein, binds receptor GRP78 (protein, UniProt Q96IZ0 1-340, looked up)
PRKC apoptosis WT1 regulator …: MATGGYRTSSGLGGSTTDFLEEWKAKREKMRAKQNPPGPAPPGGGSSDAAGKPPAGALGTPAAAAANELNNNLPGGAPAAPAVPGPGGVNCAVGSAMLTRAAPGPRRSEDEPPAASASAAPPPQRDEEEPDGVPEKGKSSGPSARKGKGQIEKRKLREKRRSTGVVNIPAAECLDEYEDDEAGQKERKREDAITQQNTIQNEAVNLLDPGSSYLLQEPPRTVSGRYKSTTSVSEEDVSSRYSRTDRSGFPRYNRDANVSGTLVSSSTLEKKIEDLEKEVVRERQENLRLVRLMQDKEEMIGKLKEEIDLLNRDLDDIEDENEQLKQENKTLLKVVGQLTR
- apoptosis (active caspase-3 positive cells), CZT together with recombinant Par-4 ([2]; CZT (1 μM) + recombinant Par-4 (100 nM), A549/EML4-ALK, A549, A549TR, H1299, KP-7B cells, FIG. 1A): increased apoptosis
